System: LG0703-F498-PDC complex spheroid growth
Assay: Anticancer human tumor LG0703-F498-PDC patient-derived lung adenocarcinoma cell line growth inhibition [AhR]
Conditions: for IC50: curve of first compound; for viability, T/C: stronger effect = lower value
How it was run: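 Complex tumor spheroids co-cultured with HUVEC and human MSC stroma; AhR antagonists tested in combination with standard-of-care and investigational agents. Top concentration at or near clinical Cmax (else 10 microM), half-log dilutions; growth expressed as percent test/control.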

[1] = second compound 0.1 µM, first compound 0.0316 µM
[2] = second compound 0.1 µM, first compound 0.1 µM
[3] = second compound 0.1 µM, first compound 0.316 µM
[4] = second compound 0.1 µM, first compound 1 µM
[5] = second compound 0.1 µM, first compound 3.16 µM
[6] = second compound 0.1 µM, first compound 10 µM
[7] = second compound 0.316 µM, first compound 0.0316 µM
[8] = second compound 0.316 µM, first compound 0.1 µM
[9] = second compound 0.316 µM, first compound 0.316 µM
[10] = second compound 0.316 µM, first compound 1 µM
[11] = second compound 0.316 µM, first compound 3.16 µM
[12] = second compound 0.316 µM, first compound 10 µM
[13] = second compound 1 µM, first compound 0.0316 µM
[14] = second compound 1 µM, first compound 0.1 µM
[15] = second compound 1 µM, first compound 0.316 µM
[16] = second compound 1 µM, first compound 1 µM
[17] = second compound 1 µM, first compound 3.16 µM
[18] = second compound 1 µM, first compound 10 µM
[19] = second compound 3.16 µM, first compound 0.0316 µM
[20] = second compound 3.16 µM, first compound 0.1 µM
[21] = second compound 3.16 µM, first compound 0.316 µM
[22] = second compound 3.16 µM, first compound 1 µM
[23] = second compound 3.16 µM, first compound 3.16 µM
[24] = second compound 3.16 µM, first compound 10 µM
[25] = second compound 10 µM, first compound 0.0316 µM
[26] = second compound 10 µM, first compound 0.1 µM
[27] = second compound 10 µM, first compound 0.316 µM
[28] = second compound 10 µM, first compound 1 µM
[29] = second compound 10 µM, first compound 3.16 µM
[30] = second compound 10 µM, first compound 10 µM
[31] = second compound 0.1 µM, first compound 0.00316 µM
[32] = second compound 0.1 µM, first compound 0.01 µM
[33] = second compound 0.316 µM, first compound 0.00316 µM
[34] = second compound 0.316 µM, first compound 0.01 µM
[35] = second compound 1 µM, first compound 0.00316 µM
[36] = second compound 1 µM, first compound 0.01 µM
[37] = second compound 3.16 µM, first compound 0.00316 µM
[38] = second compound 3.16 µM, first compound 0.01 µM
[39] = second compound 10 µM, first compound 0.00316 µM
[40] = second compound 10 µM, first compound 0.01 µM
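Note: luminescence taken as a proxy for viable cell amount.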
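Throughout, for viability, T/C: percent of DMSO vehicle control where 100% means growth equal to vehicle.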

| SMILES | IC50 (second compound 0.1 µM) | IC50 (second compound 0.316 µM) | IC50 (second compound 1 µM) | IC50 (second compound 3.16 µM) | IC50 (second compound 10 µM) | viability, T/C [1] | viability, T/C [2] | viability, T/C [3] | viability, T/C [4] | viability, T/C [7] | viability, T/C [8] | viability, T/C [9] | viability, T/C [10] | viability, T/C [13] | viability, T/C [14] | viability, T/C [15] | viability, T/C [16] | viability, T/C [19] | viability, T/C [20] | viability, T/C [21] | other results |
| --- | --- | --- | --- | --- | --- | --- | --- | --- | --- | --- | --- | --- | --- | --- | --- | --- | --- | --- | --- | --- | --- |
| CC(C)c1c(-c2ccccc2)nc2c(C#N)c[nH]n2c1=O + CC(CO)NC(=O)c1cc(-c2ccc(Cl)cc2)nn(-c2cnn(C)c2)c1=O | > 10000 nM | > 10000 nM | > 10000 nM | > 10000 nM | > 10000 nM | 94.2% | 96.5% | 87.5% | 86.1% | 88.2% | 95.5% | 100% | 78.9% | 82% | 88.7% | 83.8% | 87.3% | 70.3% | 96.7% | 73.3% | viability, T/C [5]: 87.3%; viability, T/C [6]: 80.8%; viability, T/C [11]: 84.1%; viability, T/C [12]: 78.5%; viability, T/C [17]: 83.4%; viability, T/C [18]: 82%; viability, T/C [22]: 69%; viability, T/C [23]: 85%; viability, T/C [24]: 78.1%; viability, T/C [25]: 73%; viability, T/C [26]: 76.5%; viability, T/C [27]: 66.2%; viability, T/C [28]: 69.2%; viability, T/C [29]: 67.4%; viability, T/C [30]: 69.4% |
| CC1COCCN1c1cc(-c2ccnn2C)c2ccnc(-c3ccn[nH]3)c2n1 (stereo not given) + CC(CO)NC(=O)c1cc(-c2ccc(Cl)cc2)nn(-c2cnn(C)c2)c1=O | 666 nM | 465 nM | 602 nM | 416 nM | 243 nM | 93.4% | 70.6% | 66.2% | 42.5% | 96.6% | 72.5% | 55.8% | 43.4% | 90.7% | 82.4% | 58.1% | 42.5% | 78.2% | 67.2% | 55.1% | viability, T/C [31]: 107%; viability, T/C [32]: 104%; viability, T/C [33]: 93.2%; viability, T/C [34]: 110%; viability, T/C [35]: 108%; viability, T/C [36]: 102%; viability, T/C [37]: 87.5%; viability, T/C [38]: 90.5%; viability, T/C [22]: 37.9%; viability, T/C [39]: 101%; viability, T/C [40]: 90.1%; viability, T/C [25]: 82.7%; viability, T/C [26]: 60.8%; viability, T/C [27]: 47.1%; viability, T/C [28]: 32.6% |
| COc1ccc([C@@H](O)c2cc(-c3ncnc4cc(N5CCOCC5)ccc34)c(F)cc2Cl)nn1 + CC(CO)NC(=O)c1cc(-c2ccc(Cl)cc2)nn(-c2cnn(C)c2)c1=O | 3650 nM | 4790 nM | 5260 nM | 3180 nM | 2910 nM | 88.9% | 89.9% | 93.5% | 76% | 94.2% | 95.8% | 81% | 74.5% | 97.4% | 95.1% | 88.1% | 83.8% | 93.1% | 86.4% | 88.1% | viability, T/C [5]: 53.5%; viability, T/C [6]: 31.7%; viability, T/C [11]: 64.5%; viability, T/C [12]: 30.5%; viability, T/C [17]: 61.6%; viability, T/C [18]: 34.4%; viability, T/C [22]: 68.3%; viability, T/C [23]: 51.2%; viability, T/C [24]: 32.1%; viability, T/C [25]: 78.5%; viability, T/C [26]: 88.3%; viability, T/C [27]: 77.1%; viability, T/C [28]: 69.5%; viability, T/C [29]: 48.5%; viability, T/C [30]: 33.4% |
| COc1cccc2c1C(=O)c1c(O)c3c(c(O)c1C2=O)CC(O)(C(=O)CO)CC3OC1CC(N)C(O)C(C)O1 (stereo not given) + Cc1ccccc1N=Nc1ccc(NC(=O)c2ccnn2C)c(C)c1 | 687 nM | 552 nM | 564 nM | 573 nM | 680 nM | 92.4% | 90% | 69.9% | 40.7% | 93.5% | 89.7% | 59.3% | 38.2% | 79.1% | 95.6% | 64.9% | 32.1% | 92.5% | 85.9% | 67.2% | viability, T/C [5]: 11.5%; viability, T/C [6]: 0.88%; viability, T/C [11]: 11.3%; viability, T/C [12]: 0.75%; viability, T/C [17]: 10.6%; viability, T/C [18]: 0.84%; viability, T/C [22]: 34.2%; viability, T/C [23]: 8.26%; viability, T/C [24]: 0.48%; viability, T/C [25]: 80.8%; viability, T/C [26]: 82.3%; viability, T/C [27]: 69.9%; viability, T/C [28]: 40.4%; viability, T/C [29]: 5.43%; viability, T/C [30]: 2.16% |
| Nc1ncn(C2CC(O)C(CO)O2)c(=O)n1 (stereo not given) + Cc1ccccc1N=Nc1ccc(NC(=O)c2ccnn2C)c(C)c1 | > 1000 nM | > 1000 nM | > 1000 nM | > 1000 nM | > 1000 nM | 94.8% | 85% | 83.2% | 83.9% | 92.1% | 90.1% | 76.5% | 87% | 88% | 89.7% | 75.4% | 92.6% | 87% | 75% | 79.4% | viability, T/C [31]: 96.5%; viability, T/C [32]: 99.1%; viability, T/C [33]: 97%; viability, T/C [34]: 93.6%; viability, T/C [35]: 86.2%; viability, T/C [36]: 101%; viability, T/C [37]: 95.2%; viability, T/C [38]: 97.6%; viability, T/C [22]: 65.5%; viability, T/C [39]: 85.9%; viability, T/C [40]: 90.9%; viability, T/C [25]: 86.6%; viability, T/C [26]: 72.4%; viability, T/C [27]: 74.2%; viability, T/C [28]: 68.3% |

— PubChem BioAssay AID1919013 (Molecular Pharmacology Branch, DTP, NCI, 2023)
